# Measurements as given in patent US4950686A, “Anti-mycoplasma agent” (Shionogi & Co., Ltd., priority 1986, dated 1990).
# Counter-ions that a name gives are not always drawn. Like-named read-outs stand apart in the source and are kept apart here.
# How the values were obtained:
# [1] = tested on: Mycoplasma gallisepticum S6 (standard strain); experiment: Anti-mycoplasma activity in vitro (MIC, broth dilution), strain S6; assay type: cell-based; details: Mg S6, 37° C., 7 days
# Protocol: (§1) (1) Anti-mycoplasma activity test in vitro
# (§2) MIC values of each of Tropolones were measured on the following strains according to the following method.
# (§3) (a) Mycoplasma gallisepticum
# (§4) Medium: Chick PPLO broth supplemented with 20% equine serum (Eiken Kagaku Co., Ltd.)
# (§5) Method: Broth dilution method
# (§6) Inoculum: Culture incubated at 37° C. for 24-48 hr which is diluted with broth to 10^6 CCU/ml immediately before the use.
# (§7) To 1.6 ml of the broth is added 0.2 ml of an agent which has been subjected to 2-fold dilution and then added 0.2 ml of inoculum, which is incubated at 37° C. for 7 days.
# [2] = tested on: Mycoplasma gallisepticum S6 (standard strain); experiment: Mycoplasma gallisepticum air-sac infection method in chicken, strain S6; assay type: in vivo, Mycoplasma gallisepticum; SPF chicken (white leghorn)
# Protocol: (§8) (2) Test of Effectiveness Mycoplasma gallisepticum air-sac infection method
# (§9) Inoculation: To the right air-sac of 9 days old SPF chicken (a white leghorn) which has abstained from water and feed one day before is inoculated 0.20-0.25 ml/chicken of fresh mycoplasma culture incubated for 24-48 hr and diluted with broth (usually 100 times). The concentration in Table 2 is shown in a unit of mg/ml.
# (§10) Medium: Chick PPLO broth supplemented with 15% equine serum (Eiken Kagaku Co., Ltd.)
# (§11) Administration: A compound of this invention dissolved or suspended in the following solution is orally and forcibly administered once by a cannula immediately after the infection.
# (§12) Anatomization and Isolation of Microorganism: The chickens are anatomized 5 days after the infection, and the right and left air sacs are investigated whether they are attacked with a disease or not. The change caused by the disease is represented in four degrees; -: no change, +: slight, ++: medium and +++: serious. Microorganism is isolated from the right and left air-sacs and the trachea by using a sterilized applicator.
# (§13) Judgement: Judgement is done through an index of an air-sac disease and an index of a microorganism-isolation.
# (§14) Index of an air-sac-disease: First, indexes in the right and left air-sacs are separately calculated according to the following formula;
# (§15) {degree of disease (0-3)×chickens}/anatomized chickens
# (§16) and the index is calculated by the following formula;
# (§17) (index of right air-sac)×1+(index of left air-sac)×2
# (§18) Index of a microorganism isolation:
# (§19) P: chickens from the right air-sac of which microorganism is isolated,
# (§20) Q: chickens from the trachea of which microorganism is isolated,
# (§21) R: chickens from the left air-sac of which microorganism is isolated, and
# (§22) S: chickens investigated.
# [3] = tested on: Mycoplasma gallisepticum T-7-T (wild strain, tylosin-resistant); experiment: Anti-mycoplasma activity in vitro (MIC, broth dilution), strain T-7-T; assay type: cell-based; details: Mg T-7-T, 37° C., 7 days
# Protocol: as §1, §2, §3
# (§23) T-7-T (wild strain, tylosin-resistant)
# as §4, §5, §6, §7
# [4] = tested on: Mycoplasma gallisepticum MR-1 (wild strain, tylosin-resistant); experiment: Anti-mycoplasma activity in vitro (MIC, broth dilution), strain MR-1; assay type: cell-based; details: Mg MR-1, 37° C., 7 days
# Protocol: as §1, §2, §3
# MR-1 (wild strain, tylosin-resistant)
# as §4, §5, §6, §7
# [5] = tested on: Mycoplasma hyopneumoniae ST-11 (standard strain); experiment: Anti-mycoplasma activity in vitro (MIC, broth dilution), strain ST-11; assay type: cell-based; details: Mh ST-11
# Protocol: as §1, §2
# (b) Mycoplasma hyopneumoniae
# Strain: ST-11 (standard strain)
# Medium: 850 ml of Hanks' solution supplemented with 0.5% lactoalbumin, 50 ml of 25% yeast, 100 ml of equine serum and 4-6 ml of 0.5% phenol red (pH 7.4-7.6)
# as §5
# Inoculum: Culture which is incubated for 3-4 days and diluted 10 times with the broth if color of the broth becomes yellow then. If it needs over 4 days until color of the broth becomes yellow, it is further subcultured. This is diluted 10 times with the broth to give inoculum.
# Assay is done in the same manner as in the above (a).
# [6] = tested on: Mycoplasma gallisepticum T-7-T (wild strain, tylosin-resistant); experiment: Mycoplasma gallisepticum air-sac infection method in chicken, strain T-7-T;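 on Index of Isolation: index = (P×1 + Q×2 + R×3)/S with range 0 to 6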; assay type: in vivo, Mycoplasma gallisepticum; SPF chicken (white leghorn); details: 100 mg/kg × once oral, 10 mg/ml sol. b; for Change of air-sac, left: + (chickens) / Change of air-sac, left: ++ (chickens) / Change of air-sac, left: +++ (chickens) / Change of air-sac, left: - (chickens) / Change of air-sac, right: + (chickens) / Change of air-sac, right: ++ (chickens) / Change of air-sac, right: +++ (chickens) / Change of air-sac, right: - (chickens) / Isolation, L (left air-sac) / Isolation, R (right air-sac) / Isolation, T (trachea) / Mycoplasma Isolated Chickens: inoculum 10^2; for Index of Isolation: inoculum 10^2, range 0-6.0; for Index of Disease: inoculum 10^2, range 0-9.0
# Protocol: as §8, §23, §9, §10, §11, §12, §13, §14, §15, §16, §17, §18, §19, §20, §21, §22
# [7] = Mycoplasmoides gallisepticum, 168 h, read-out: MIC
# [8] = 100 mg/kg × once oral, 10 mg/ml sol. b, inoculum 7.7 × 10^5
# [9] = 100 mg/kg × once oral, 10 mg/ml sol. b, inoculum 7.7 × 10^5, range 0-6.0
# [10] = 100 mg/kg × once oral, 10 mg/ml sol. b, inoculum 7.7 × 10^5, range 0-9.0
# [11] = Mesomycoplasma hyopneumoniae, read-out: MIC
# [12] = 100 mg/kg × once oral, 10 mg/ml sol. b, inoculum 1.2 × 10^6
# [13] = 100 mg/kg × once oral, 10 mg/ml sol. b, inoculum 1.2 × 10^6, range 0-6.0
# [14] = 100 mg/kg × once oral, 10 mg/ml sol. b, inoculum 1.2 × 10^6, range 0-9.0
# [15] = 200 mg/kg × once oral, 20 mg/ml sol. b, inoculum 1.18 × 10^6
compound,measurement,setting,value
"Cc1oc(=O)oc1COc1cccccc1=O [Compound 25, O-{(2-Oxo-5-methyl-1,3-dioxol-4-yl)methyl}tropolone]",MIC,[1]; [7],0.39 µg/mL
same,"Change of air-sac, left: + (chickens)",[2]; [8],0
same,"Change of air-sac, left: ++ (chickens)",[2]; [8],0
same,"Change of air-sac, left: +++ (chickens)",[2]; [8],0
same,"Change of air-sac, left: - (chickens)",[2]; [8],8
same,"Change of air-sac, right: + (chickens)",[2]; [8],1
same,"Change of air-sac, right: ++ (chickens)",[2]; [8],0
same,"Change of air-sac, right: +++ (chickens)",[2]; [8],0
same,"Change of air-sac, right: - (chickens)",[2]; [8],7
same,"Isolation, L (left air-sac)",[2]; [8],6
same,"Isolation, R (right air-sac)",[2]; [8],5
same,"Isolation, T (trachea)",[2]; [8],7
same,Mycoplasma Isolated Chickens,[2]; [8],7
same,Index of Isolation,[2]; [9],4.38
same,Index of Disease,[2]; [10],0.13
same,MIC,[3]; [7],0.39 µg/mL
same,MIC,[4]; [7],0.39 µg/mL
same,MIC,[5]; [11],0.2 µg/mL
"O=c1c(O)ccccc1Br [Compound 24, 7-Bromotropolone]",MIC,[1]; [7],0.39 µg/mL
same,"Change of air-sac, left: + (chickens)",[2]; [12],0
same,"Change of air-sac, left: ++ (chickens)",[2]; [12],0
same,"Change of air-sac, left: +++ (chickens)",[2]; [12],0
same,"Change of air-sac, left: - (chickens)",[2]; [12],8
same,"Change of air-sac, right: + (chickens)",[2]; [12],0
same,"Change of air-sac, right: ++ (chickens)",[2]; [12],0
same,"Change of air-sac, right: +++ (chickens)",[2]; [12],0
same,"Change of air-sac, right: - (chickens)",[2]; [12],8
same,"Isolation, L (left air-sac)",[2]; [12],4
same,"Isolation, R (right air-sac)",[2]; [12],1
same,"Isolation, T (trachea)",[2]; [12],7
same,Mycoplasma Isolated Chickens,[2]; [12],7
same,Index of Isolation,[2]; [13],2.70
same,Index of Disease,[2]; [14],0
same,MIC,[3]; [7],0.78 µg/mL
same,MIC,[4]; [7],1.56 µg/mL
same,"Change of air-sac, left: + (chickens)",[6],0
same,"Change of air-sac, left: ++ (chickens)",[6],0
same,"Change of air-sac, left: +++ (chickens)",[6],0
same,"Change of air-sac, left: - (chickens)",[6],8
same,"Change of air-sac, right: + (chickens)",[6],0
same,"Change of air-sac, right: ++ (chickens)",[6],0
same,"Change of air-sac, right: +++ (chickens)",[6],0
same,"Change of air-sac, right: - (chickens)",[6],8
same,"Isolation, L (left air-sac)",[6],3
same,"Isolation, R (right air-sac)",[6],3
same,"Isolation, T (trachea)",[6],5
same,Mycoplasma Isolated Chickens,[6],5
same,Index of Isolation,[6],2.80
same,Index of Disease,[6],0
same,MIC,[5]; [11],0.2 µg/mL
"CC(C)(C)C(=O)OCOc1cccccc1=O [Compound 19, O-(pivaloyloxymethyl)tropolone]",MIC,[1]; [7],0.39 µg/mL
same,"Change of air-sac, left: + (chickens)",[2]; [12],0
same,"Change of air-sac, left: ++ (chickens)",[2]; [12],0
same,"Change of air-sac, left: +++ (chickens)",[2]; [12],0
same,"Change of air-sac, left: - (chickens)",[2]; [12],8
same,"Change of air-sac, right: + (chickens)",[2]; [12],0
same,"Change of air-sac, right: ++ (chickens)",[2]; [12],0
same,"Change of air-sac, right: +++ (chickens)",[2]; [12],0
same,"Change of air-sac, right: - (chickens)",[2]; [12],8
same,"Isolation, L (left air-sac)",[2]; [12],1
same,"Isolation, R (right air-sac)",[2]; [12],1
same,"Isolation, T (trachea)",[2]; [12],2
same,Mycoplasma Isolated Chickens,[2]; [12],2
same,Index of Isolation,[2]; [13],1.01
same,Index of Disease,[2]; [14],0
same,MIC,[3]; [7],0.78 µg/mL
same,MIC,[4]; [7],1.56 µg/mL
same,"Change of air-sac, left: + (chickens)",[6],0
same,"Change of air-sac, left: ++ (chickens)",[6],0
same,"Change of air-sac, left: +++ (chickens)",[6],0
same,"Change of air-sac, left: - (chickens)",[6],8
same,"Change of air-sac, right: + (chickens)",[6],0
same,"Change of air-sac, right: ++ (chickens)",[6],0
same,"Change of air-sac, right: +++ (chickens)",[6],0
same,"Change of air-sac, right: - (chickens)",[6],8
same,"Isolation, L (left air-sac)",[6],2
same,"Isolation, R (right air-sac)",[6],1
same,"Isolation, T (trachea)",[6],5
same,Mycoplasma Isolated Chickens,[6],5
same,Index of Isolation,[6],2.00
same,Index of Disease,[6],0
same,MIC,[5]; [11],0.1 µg/mL
"O=c1cccccc1O [Compound 12, Tropolone L-arginine salt]",MIC,[1],3.13 µg/mL
same,"Change of air-sac, left: + (chickens)",[2]; [15],0
same,"Change of air-sac, left: ++ (chickens)",[2]; [15],0
same,"Change of air-sac, left: +++ (chickens)",[2]; [15],0
same,"Change of air-sac, left: - (chickens)",[2]; [15],5
same,"Change of air-sac, right: + (chickens)",[2]; [15],1
same,"Change of air-sac, right: ++ (chickens)",[2]; [15],0
same,"Change of air-sac, right: +++ (chickens)",[2]; [15],0
same,"Change of air-sac, right: - (chickens)",[2]; [15],4
same,"Isolation, L (left air-sac)",[2]; [15],0
same,"Isolation, R (right air-sac)",[2]; [15],2
same,"Isolation, T (trachea)",[2]; [15],1
same,Mycoplasma Isolated Chickens,[2]; [15],2
same,Index of Isolation,"[2]; 200 mg/kg × once oral, 20 mg/ml sol. b, inoculum 1.18 × 10^6, range 0-6.0",0.8
same,Index of Disease,"[2]; 200 mg/kg × once oral, 20 mg/ml sol. b, inoculum 1.18 × 10^6, range 0-9.0",0.2
same,MIC,[3],3.13 µg/mL
same,MIC,[4],3.13 µg/mL
same,MIC,[5],1.56 µg/mL
"COc1ccccc(O)c1=O [Compound 26, 7-Methoxytropolone]",MIC,[1]; [7],6.25 µg/mL
same,"Change of air-sac, left: + (chickens)",[2]; [8],0
same,"Change of air-sac, left: ++ (chickens)",[2]; [8],0
same,"Change of air-sac, left: +++ (chickens)",[2]; [8],0
same,"Change of air-sac, left: - (chickens)",[2]; [8],8
same,"Change of air-sac, right: + (chickens)",[2]; [8],4
same,"Change of air-sac, right: ++ (chickens)",[2]; [8],2
same,"Change of air-sac, right: +++ (chickens)",[2]; [8],0
same,"Change of air-sac, right: - (chickens)",[2]; [8],2
same,"Isolation, L (left air-sac)",[2]; [8],8
same,"Isolation, R (right air-sac)",[2]; [8],5
same,"Isolation, T (trachea)",[2]; [8],8
same,Mycoplasma Isolated Chickens,[2]; [8],8
same,Index of Isolation,[2]; [9],4.88
same,Index of Disease,[2]; [10],1.00
same,MIC,[3]; [7],12.5 µg/mL
same,MIC,[4]; [7],6.25 µg/mL
same,MIC,[5]; [11],3.13 µg/mL
